In patent publication US7232673B2, “Antimicrobial protein from Lyophyllum shimeji” (Japan Tobacco Inc., priority 1999, dated 2007):
Values belong to the molecule of their own block, whether it stands above or below them.

Columns and labels:
Assay in all cases: Pyranose oxidase activity (properties of pyranose oxidase, method of Nishimura et al. 1996)
[1] = molecular target: T1, Lyophyllum shimeji antimicrobial protein (pyranose oxidase), native, purified MonoQ fractions Nos. 42-44 containing the 65 kDa + 70 kDa proteins, SEQ ID NO:2 (Lyophyllum shimeji, UniProt Q75ZP8); type: biochemical; settings: result in words
T1 construct: MonoQ fractions 42-44 holding the 70 kDa precursor (1-618) and 65 kDa mature form (76-618), both from a single gene; not the His-tagged E. coli product
T1 sequence (Q75ZP8 76-618): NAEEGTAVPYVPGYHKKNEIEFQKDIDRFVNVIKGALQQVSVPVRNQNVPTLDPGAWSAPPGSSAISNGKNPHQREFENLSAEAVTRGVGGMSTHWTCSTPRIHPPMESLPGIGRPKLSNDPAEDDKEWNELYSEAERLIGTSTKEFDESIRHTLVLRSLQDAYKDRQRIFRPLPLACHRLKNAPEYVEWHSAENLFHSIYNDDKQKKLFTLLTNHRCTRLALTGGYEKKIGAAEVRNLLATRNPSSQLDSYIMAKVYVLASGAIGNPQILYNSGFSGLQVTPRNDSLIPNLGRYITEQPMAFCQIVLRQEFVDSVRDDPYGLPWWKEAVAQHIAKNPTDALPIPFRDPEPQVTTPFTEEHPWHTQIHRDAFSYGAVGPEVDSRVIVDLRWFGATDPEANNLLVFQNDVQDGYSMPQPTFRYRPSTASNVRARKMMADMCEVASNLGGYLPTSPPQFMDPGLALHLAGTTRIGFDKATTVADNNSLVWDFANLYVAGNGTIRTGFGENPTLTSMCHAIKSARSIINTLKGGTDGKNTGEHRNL
Experimental: (§1) The amino acid sequences thus determined were searched for in a data base. […] Thus, the pyranose oxidase activity of each MonoQ fraction was measured in accordance with the method of Nishimura et al. (1996). […] Accordingly, it is estimated that the antimicrobial activity would be derived from hydrogen peroxide formed during the oxidation of glucose in the medium by this enzyme. Next, the fractions containing both of the 65 kDa and 70 kDa proteins (FIG. 2 Nos. 42–44) were exclusively concentrated and properties of pyranose oxidase were analyzed. […] The amount of the enzyme proteins (65 kDa+70 kDa) was determined by SDS-PAGE silver staining.

[2] = substrate: OC[C@H]1OC(O)[C@H](O)[C@@H](O)[C@@H]1O; type: biochemical, Lyophyllum shimeji; settings: other: native L. shimeji enzyme protein (65 kDa+70 kDa), table footnote (activity unit): pH 7.0, 37° C.
Experimental: as §1

[3] = substrate: OC[C@H]1OC[C@H](O)[C@@H](O)[C@@H]1O; type: biochemical, Lyophyllum shimeji; settings: other: native L. shimeji enzyme protein (65 kDa+70 kDa), table footnote (activity unit): pH 7.0, 37° C.
Experimental: as §1

Km values to 1,5-anhydroglucitol [1]: low
Molecule: OC[C@H]1OC[C@H](O)[C@@H](O)[C@@H]1O [1,5-Anhydroglucitol]

Km values to glucose [1]: low
Molecule: OC[C@H]1OC(O)[C@H](O)[C@@H](O)[C@@H]1O (stereo partly shown) [Glucose]

B1: Lyophyllum shimeji antimicrobial protein (pyranose oxidase), native, purified MonoQ fractions Nos. 42-44 containing the 65 kDa + 70 kDa proteins, SEQ ID NO:2 … (protein)
chain: T1 sequence (Q75ZP8 76-618)
notes: MonoQ fractions 42-44 holding the 70 kDa precursor (1-618) and 65 kDa mature form (76-618), both from a single gene; not the His-tagged E. coli product
Km [2]: 0.50 mM
Km [3]: 6.5 mM
